Results on one substance are retold here after patent publication US6583164B1, “Antimycotic drug composition” (Takeda Chemical Industries, Ltd., priority 1998, dated 2003).

The test deals with A. fumigatus TIMM1728. The test is described as follows: Defensive effect against experimental Aspergillosis infection in neutropenic mice (prolonging life). It is filed as in vivo. As to conditions: CDF1 female mice made neutropenic with cyclophosphamide; intravenous administration, 5 times; survival recorded for 10 days after infection. How it is done:
Method: 6-week-old CDF1 female mice (n=5) were allowed to have neutropenia by intraperitoneally administering 200 mg/kg of cyclophosphamide, and after 4 days, 0.2 ml liquid of frozen and stored A. fumigatus TIMM1728 conidia, diluted 1000-fold, was inoculated into the tail veins of the mice (6×10^4 CFU/mouse). Compound 12 was dissolved in 5% saccharide solution (aqueous glucose solution) and intravenously administered into the mice 5 times, that is, once in 2 hours after the infection and daily twice for 2 days after the infection. The number of living mice was recorded for 10 days after the infection, to evaluate the effect of prolonging their life.

For the substance “4-acetoxymethyl-1-[(2R,3R)-2-(2,4-difluorophenyl)-2-hydroxy-3-[2-oxo-3-[4-(1H-tetrazol-1-yl)phenyl]-1-imidazolidinyl]butyl]-1H-1,2,4-triazolium chloride [Compound 12]”, the “Defensive effect (ED50)” value is 1.7 mg/kg.
